Assay results reported in patent US7557109B2, “Treatment for attention-deficit hyperactivity disorder” (priority 2001, dated 2009).

Experiments:
[1] = test system: 5-HT1B knockout (1BKO) mice; test: DRL-36s schedule after FR5 conditioning, 5-HT1B knockout mice; format: in vivo
Protocol: Experiments were conducted in eight identical mouse operant chambers (16×14×13 cm) with stainless steel grid floors (ENV-307M; Med Associates Inc., Georgia, Vt., USA) housed in sound-insulating and ventilated cubicles. Each chamber was equipped with two ultra-sensitive retractable levers, one on each side of a food cup containing photocells to register nose poke behavior and in which a pellet dispenser delivered 20 mg food pellets (Formula A/I, P.J. Noyes Company Inc., Lancaster, N.H., USA). A red house light (50 lux) was located in the center of the wall opposite to the food cup and levers. Stimulus lights were located above each lever and above the food cup. Experimental sessions were controlled and data were recorded by a computer.
Mice trained on DRL procedure first received operant conditioning. DRL-36s task was adapted from procedures used in rats (O'Donnell and Seiden, supra). Briefly, mice first learned to respond for food under a DRL 6 sec schedule, which means that mice had to wait at least 6 seconds between successive lever presses in order to obtain a food reward. Subsequently the schedule requirement was increased every session in steps of 6 sec to 36 sec (DRL 36 sec). Each session started with the illumination of the house light, the stimulus light above the food cup and the presentation of the left lever for the duration of the session. […] If the mouse presses too soon, no reinforcement is given, the clock is reset to zero, and a new 36-sec waiting period starts. In this way, the DRL-36s schedule task primarily measures waiting strategies which reflect hyperactivity-impulsivity behaviors associated with ADHD. Animals were trained until performances on the DRL 36 sec schedule had stabilized (approximately 25 sessions). All training sessions lasted 60 min and were conducted 5 days per week from Monday-Friday. The total number of lever presses (responses), the total number of reinforcements, and the inter-response times (IRT) are recorded.
Data were analyzed as described elsewhere (Richards et al., J. Exp. Anal. Behav. 60:361-385, 1993; Sabol et al., Psychopharmacology 121:57-65, 1995). The inter-response time (IRT) analysis included three measures for the characterization of DRL 36 sec IRT distributions: peak area, peak location and burst ratio. Only peak area (PkA) and peak location (PkL) are presented. The PkA measure is the area of the obtained IRT distribution of a mouse above the corresponding negative exponential, a computation based on mean of obtained IRT durations excluding the burst component of IRT<3 sec (see Richards et al., supra, for details). […] PkL is calculated as the median of the area of the obtained IRT distribution above the corresponding negative exponential. […]

[2] = test system: DA and 5-HT release in dorsal striatum; test: In vivo microdialysis of DA and 5-HT release in dorsal striatum, wild-type mice; settings: 0.1 mg/kg i.p.
Excerpt: Wild-type and 5-HT1B knock out mice were implanted with microdialysis probes according to the methods of DeGroote et al., incorporated herein by reference, with the following modifications. (DeGroote et al., Eur. J. Pharmacol., 439:93-100, 2002). The dialysis probe was placed in the dorsal striatum, at coordinates AP +0.80, ML −1.7 mm from bregma, DV −4.0 mm from the dura, according to the stereotaxic atlas of the mouse brain (Franklin and Paxinos, 1997), and with the toothbar set at 0 mm. Microdialysis experiments were begun 16-20 hours after surgery, using previously described methods, which are incorporated herein by reference (DeGroote et al., 2002). After the start of the dialysis probe perfusion, mice were left undisturbed for three hours. Mice were tested in their home cage during the light period. Samples were collected every 20 minutes in vials containing 7.5 μl acetic acid and stored at −80° C. until HPLC analysis.
Release of DA and 5-HT was measured after peripheral administration of eltoprazine or intrastriatal administration of the selective 5-HT1B receptor agonist CP 93129 dihydrochloride (1,4-Dihydro-3-(1,2,3,6-tetrahydro-4-pyridinyl)-5H-pyrrolo[3,2-b]pyridin-5-one, obtained from Tocris, UK.) Drugs were dissolved in distilled water and further diluted in Ringer solution to the final concentration on the day of the experiment. 5-HT and DA were analyzed by HPLC with electrochemical detection. Samples (25 μl) were injected onto an Inertsil ODS-3 column (3 μM, 2.1×100 mm, Aurora Borealis, The Netherlands) using a Gilson pump and autosampler (Separations, The Netherlands). Separation was performed at 40° C. with the electrochemical detector (Intro, ANTEC Leyden, The Netherlands) set at a potential of 600 mV against an Ag/AgCl reference electrode. The signal was analyzed using Gynkotek software. The mobile phase consisted of 5 g/l (NH4)2SO4, 150 mg/l heptane sulphonic acid sodium salt, 0.5 g/l EDTA, 5% methanol, 30 μl/l triethylamine, 30 μl/l acetic acid, pH 4.6. Flow rate was 0.3 ml/min. The detection limit for 5-HT was 0.5 fmol/25 μl sample (signal to noise ratio 2).
Values for the first four consecutive microdialysis samples were averaged to calculate the basal levels of extracellular 5-HT and DA, uncorrected for probe recovery. Student's t-tests were used to compare basal 5-HT and DA values between the two genotypes. Effects of drug treatment were analyzed by a repeated multivariate analysis of variance (ANOVA) with time as ‘within’ and treatment (or dose) and genotype as ‘between’ factors.

Q: For c1cc2c(c(N3CCNCC3)c1)OCCO2 [eltoprazine, 1-(2,3-dihydro-1,4-benzodioxanyl-5-yl) piperazine], which number of reinforcements ([1]; 0.5 mg/kg and 1 mg/kg i.p. (FIG. 13A)) is on record?
A: significantly decreased reinforcements

Q: And the response rate ([1]; 0.5 mg/kg i.p. (FIG. 13B))?
A: significantly decreased response rates

Q: What about the “time after administration to decrease of DA and 5-HT release” value [2] of the same compound?
A: ≤ 20 min

Q: And the “time striatal release of DA and 5-HT remained below basal levels after administration” value [2]?
A: at least 100 minutes

Q: What about the “basal release of 5-HT” value ([2]; awake mice) of the same compound?
A: decreased basal release

Q: What about the “basal release of DA” value ([2]; awake mice) of the same compound?
A: decreased basal release
